# Laboratory results: US9205064B2, “Methods for the diagnosis of oncological disorders using epimetabolic shifters, multidimensional intracellular molecules, or environmental influencers” (Berg LLC, priority 2009, dated 2015)
# Assays:
# [1] = test system: Melanoma cells; assay: Cell proliferation assay (live cell count) of building block combinations; format: cell-based
# Method: This set of experiments used a cell proliferation assay to assess the effect of combining different building block molecules on cell proliferation.
# The first study examined the effect of combining 4-Hydroxy-Benzoate with Benzoquinone. Cells were incubated for 48 hours, after which a cell count was performed for the live cells. Each test group was compared to the control, and each combination groups were compared to Benzoquinone control. The compounds were statistically analyzed for the addition of Benzoquinone.
# Additional studies were performed testing additional molar ratios. For the first test 4-Hydroxybenzoic were tested at concentrations of 500 nM, 1 μM, and 50 μM. These concentrations were tested in combination with 2,3-Dimethoxy-5-methyl-p-benzoquinone (Benzo). The concentration of Benzo tested were 25 μM, 50 μM, and 100 μM. Melanoma cells were grown to 80% confluency and seeded in 6 well plates at a concentration of 40K cells per well. The cells were treated with CoQ10, 4-Hydroxybenzoate, Benzo, and a combination of 4-Hydroxybenzoate/Benzo.
# A T-test was performed with p<0.05 as statistically significant.
# [2] = test system: neonatal fibroblast cells; assay: Cell proliferation assay (coulter counter); format: cell-based; conditions: HB 500 nM, 5 μM, 25 μM; benzoquinone 25, 50, 100 μM; 24 hours
# Method: A cell proliferation assay was also performed on neonatal fibroblast cells. The concentrations of HB tested were 500 nM, 5 μM, and 25 μM. HB was also tested in combination with benzoquinone at a concentrations of 25 μM, 50 μM, and 100 μM. Melanoma cells were seeded at 40 k cells per well and were treated for 24 hours. The cells were trypsinized and quantified using a coulter counter.
# [3] = test system: Bcl-2; assay: Western blot of Bcl-2 in Skmel-28 cells treated with CoQ10 building block components; format: cell-based
# Method: (§1) Skmel-28 melanoma cells were cultured in DMEM/F12 supplemented with 5% Fetal Bovine Serum (FBS) and 1× final concentration of Antibiotics. The cells were grown to 85% confluency and treated with building block components for 3, 6, 12 and 24 hours. The cells were then pelleted and a Western blot analysis was performed.
# (§2) In the Western Blot Analysis, the cells were pelleted in cold PBS, lysed, and the protein levels were quantified using a BCA protein assay. The whole cell lysate was loaded in a 4% loading 12% running Tris-HCl gel. The proteins were then transferred to a nitrocellulose paper then blocked with a 5% milk Tris-buffered solution for 1 hour. The proteins were then exposed to primary antibodies (Bcl-2 and Caspase-3) overnight. The nitrocellulose paper was then exposed to Pico Chemilluminescent for 5 min and the protein expression was recorded. After exposure, actin was quantified using the same method. Using ImageJ the levels of protein expression were quantified. A t-Test was used to analyze for statistical significance.
# [4] = test system: Caspase-3; assay: Western blot of Caspase-3 in Skmel-28 cells treated with CoQ10 building block components; format: cell-based
# Method: as §1, §2
# [5] = test system: HDFa cells; assay: SeaHorse XF analyzer OCR and ECAR; format: cell-based, human
# Excerpt: Environmental influencers (e.g., MIMs or Epi-shifters) may also be identified by changes in cellular energetics. One example of the measurement of cellular energetics are the real-time measures of the consumption of molecular oxygen and/or the change in pH of the media of a cell culture. For example, the ability of a potential epi-shifter to modulate the metabolic state of a cell may be analyzed using, for example, the XF24 Analyzer (Seahorse, Inc.). This technology allows for real time detection of oxygen and pH changes in a monolayer of cells in order to evaluate the bioenergetics of a cell microenvironment. The XF24 Analyzer measures and compares the rates of oxygen consumption (OCR), which is a measure of aerobic metabolism, and extracellular acidification (ECAR), which is a measure of glycolysis, both key indicators of cellular energetics.
# (SeaHorse Biosciences Inc, North Billerica, Mass.).
# In this experiment, the OCR and extracellular acidification rate (ECAR) in normal cells lines were obtained in the presence and absence of CoQ10 to determine baseline values. It was observed that in its native nutrient environment, the basal OCR rates in normal cells lines are different, and are usually a function of the physiological roles of the cells in the body.
# FIGS. 29 and 30 describe the OCR in HDFa and HASMC cells grown in physiologically normal glucose (about 4.6 mM) and high glucose (hyperglycemic) conditions.
# Table 53, below, describes the ECAR values (mpH/min) in HDFa cells in the presence or absence of CoQ10 under normoxic and hypoxic conditions at 5.5 mM and 22 mM glucose.
# [6] = 500 nM, 1 μM, 25 μM and 50 μM, all time points
structure (smiles),measurement,setting,value
"O=C(O)c1ccc(O)cc1 [4-Hydroxybenzoate, 4-hydroxy-benzoate]",cell number compared to the control,[1]; 48 hours,significant decrease in cell number
same,cell proliferation,"[1]; HB 500 nM, 1 μM, 50 μM, p<0.05",significant decrease in cell proliferation
same,reduction in fibroblast cells,[2],did not show a significant reduction
CC(=O)SCCNC(=O)CCNC(=O)[C@H](O)C(C)(C)COP(=O)(O)OP(=O)(O)OC[C@H]1O[C@@H](n2cnc3c(N)ncnc32)[C@H](O)[C@@H]1OP(=O)(O)O [Acetyl-CoA],Bcl-2 expression,[3]; [6],no significant observed reduction
same,Caspase-3 expression,[4]; [6],no significant observed
N[C@H](Cc1ccc(O)cc1)C(=O)O [D-Tyrosine],Caspase-3 expression,"[4]; 5 μM, 12 hour",increase
N[C@@H](Cc1ccc(O)cc1)C(=O)O [L-Tyrosine],Bcl-2 expression,"[3]; 500 μM and 5 μM, 24 hours",statistically significant decrease
"C[C@@](O)(CCO)CC(=O)O [Mevalonic Acid, mevalonic acid]",Bcl-2 expression,[3]; [6],no significant reduction
same,Caspase-3 expression,[4]; [6],no significant
"COc1cc(C(O)C(=O)O)ccc1O (stereo not drawn) [VMA, 3-methoxy-4-hydroxymandelate]","apoptotic effect (Bcl-2, Caspase-3)","[3]; 100 nM, 250 nM, 500 nM, 1 μM, 25 μM, 50 μM and 100 μM",no statistically significant apoptotic effect
COC1=C(OC)C(=O)C(C/C=C(\C)CC/C=C(\C)CC/C=C(\C)CC/C=C(\C)CC/C=C(\C)CC/C=C(\C)CC/C=C(\C)CC/C=C(\C)CC/C=C(\C)CCC=C(C)C)=C(C)C1=O [compound 31510],ECAR,"[5]; 50 μM, Hypoxia (5.5 mM)",5 mpH/min
same,ECAR,"[5]; 50 μM, Hypoxia (22 mM)",6 mpH/min
same,ECAR,"[5]; 50 μM, Normoxia (5.5 mM)",6 mpH/min
same,ECAR,"[5]; 50 μM, Normoxia (22 mM)",5 mpH/min
same,ECAR,"[5]; 100 μM, Hypoxia (5.5 mM)",5 mpH/min
same,ECAR,"[5]; 100 μM, Hypoxia (22 mM)",8 mpH/min
same,ECAR,"[5]; 100 μM, Normoxia (5.5 mM)",6 mpH/min
same,ECAR,"[5]; 100 μM, Normoxia (22 mM)",5 mpH/min
